Converted amounts (≈) assume the structure as drawn. Where a name gives a salt, the structure may show the parent alone.
Key:
[1] = Solubility of ocaperidone salts and free base in water; settings: for solubility in water (in words): crystalline salt, HPLC grade water pH=6, 25° C., 1 h and 24 h, compared with salts of examples 1, 3-10 and free base
Method: In particular, the solubilities of ocaperidone salts were measured as follows:
UV/visible spectrophotometer: Agilent 8453E
Volumetric flask (5 ml, 10 ml, 20 ml, 100 ml) Mechanical pipettes: Biohit (m1000, m200)
Magnetic stirrer: Heidolph MR3001K
A suspension of 100 mg of crystalline ocaperidone salt or ocaperidone free base in 1 ml HPLC grade pure water (pH=6) was prepared. The suspension was kept at fixed and controlled temperature (ex: 25° C.) under magnetic stirring for 24 hours. A sample was taken, filtered and the solubility of the ocaperidone salts or ocaperidone free base was measured after 1 h and 24 h. Results are given in g/100 ml.

[2] = Solubility of ocaperidone free base in acid solution; assay type: physicochemical; settings: acid solution at pH=1.3

Structure (SMILES) | solubility in water (in words) [1] | solubility in water (in words) ([1]; listed as ocaperidone pyroglutamic salt) | times more soluble than the succinic acid addition salt ([1]; ocaperidone salt solubility study in water, ratio to succinic acid addition salt) | solubility thermodynamic ([1]; 25 °C, pH 6, water, thermodynamic from solid) | solubility in acid solution [2]
Cc1nc2c(C)cccn2c(=O)c1CCN1CCC(c2noc3cc(F)ccc23)CC1 [Example 2, Ocaperidone Pyroglutamic Acid Salt] | higher solubility in water than the other salts | unexpectedly high solubility | 31.2 times | – | –
Cc1nc2c(C)cccn2c(=O)c1CCN1CCC(c2noc3cc(F)ccc23)CC1 [ocaperidone, 3-[2-[4-(6-fluoro-1,2-benzisoxazol-3-yl)-1-piperidinyl]ethyl]-2,9-dimethyl-pyrido-[1,2-a]pyrimidin-4-one] | – | – | – | 7 µg/mL (≈ 16.6 µM) | 0.25 g/100 ml

— patent US20080200479A1, “Ocaperidone Salts and Pharmaceutical Compositions Containing the Same” (priority 2005, published 2008)
